Measured values: ChEMBL document CHEMBL5096215, “Design, synthesis and antitumor efficacy evaluation of a series of novel β-elemene-based macrocycles” (Bioorg Med Chem, 2022)

Experiments:
PC-3 [1] = experiment: Antiproliferative activity against human PC-3 cells assessed as inhibition of cell growth at 50 uM measured after 48 hrs by CCK8 assay relative to control; assay type: functional
HCT-116 [2] = experiment: Antiproliferative activity against human HCT-116 cells assessed as inhibition of cell growth at 50 uM measured after 48 hrs by CCK8 assay relative to control; assay type: functional
A549 [3] = experiment: Antiproliferative activity against human A549 cells assessed as inhibition of cell growth at 50 uM measured after 48 hrs by CCK8 assay relative to control; assay type: functional
[4] = Antiproliferative activity against human U-87 MG cells assessed as inhibition of cell growth at 50 uM measured after 48 hrs by CCK8 assay relative to control; assay type: functional, U-87MG ATCC
U-251 [5] = experiment: Antiproliferative activity against human U-251 cells assessed as inhibition of cell growth at 50 uM measured after 48 hrs by CCK8 assay relative to control; assay type: functional
PC-3 [6] = experiment: Antiproliferative activity against human PC-3 cells assessed as inhibition of cell growth measured after 48 hrs by CCK8 assay relative to control; assay type: functional, cell-based; details: PC-3, 48 h
HCT-116 [7] = experiment: Antiproliferative activity against human HCT-116 cells assessed as inhibition of cell growth measured after 48 hrs by CCK8 assay relative to control; assay type: functional, cell-based; details: HCT-116, 48 h
A549 [8] = experiment: Antiproliferative activity against human A549 cells assessed as inhibition of cell growth measured after 48 hrs by CCK8 assay relative to control; assay type: functional, cell-based; details: A549, 48 h
[9] = Antiproliferative activity against human U-87 MG cells assessed as inhibition of cell growth measured after 48 hrs by CCK8 assay relative to control; assay type: functional, cell-based, U-87MG ATCC
U-251 [10] = experiment: Antiproliferative activity against human U-251 cells assessed as inhibition of cell growth measured after 48 hrs by CCK8 assay relative to control; assay type: functional, cell-based; details: U-251, 48 h
PC-3 [11] = experiment: Potency index, […] for antiproliferative activity against human PC-3 cells assessed as inhibition of cell growth measured after 48 hrs by CCK8 assay; assay type: functional
HCT-116 [12] = experiment: Potency index, […] for antiproliferative activity against human HCT-116 cells assessed as inhibition of cell growth measured after 48 hrs by CCK8 assay; assay type: functional
A549 [13] = experiment: Potency index, […] for antiproliferative activity against human A549 cells assessed as inhibition of cell growth measured after 48 hrs by CCK8 assay; assay type: functional
[14] = Potency index, […] for antiproliferative activity against human U-87 MG cells assessed as inhibition of cell growth measured after 48 hrs by CCK8 assay; assay type: functional, U-87MG ATCC
U-251 [15] = experiment: Potency index, […] for antiproliferative activity against human U-251 cells assessed as inhibition of cell growth measured after 48 hrs by CCK8 assay; assay type: functional

IC50 (PC-3 [6]) [µM] | IC50 (HCT-116 [7]) [µM] | IC50 (A549 [8]) [µM] | IC50 (U-251 [10]) [µM] | SMILES | inhibition at 50 µM (PC-3 [1]) [%] | inhibition at 50 µM (HCT-116 [2]) [%] | inhibition at 50 µM (A549 [3]) [%] | inhibition at 50 µM [4] [%] | inhibition at 50 µM (U-251 [5]) [%] | IC50 [9] [µM] | Ratio IC50 (PC-3 [11]) | Ratio IC50 (HCT-116 [12]) | Ratio IC50 (A549 [13]) | Ratio IC50 [14] | Ratio IC50 (U-251 [15])
276 | 782 | 227 | 181 | C=C[C@]1(C)CC[C@@H](C(=C)C)C[C@H]1C(=C)C | < 20 | < 20 | < 20 | < 20 | < 20 | 266 | – | – | – | – | –
38.6 | 17.6 | 44.8 | 23 | C=C[C@]1(C)CC[C@@H]2C[C@H]1C(=C)CN(C)CCN(C)Cc1cccc(c1)CN(C)CCN(C)CC2=C | 68.8 | 94.8 | 60.7 | < 20 | 98.5 | – | 5 | 20 | 5 | 5 | 5
